{
  "source": "patent US20090306072A1",
  "about": "“USE OF TYROSINE KINASE INHIBITORS FOR THE TREATMENT OF INFLAMMATORY PROCESSES” (Boehringer Ingelheim Pharma GmbH & Co. KG, priority 2002, published 2009)",
  "data": [
    {"system": "zymosan-induced influx of neutrophilic granulocytes in the mouse ear", "assay": "Test 2: inhibition of the zymosan-induced influx of neutrophilic granulocytes in the mouse ear (MPO activity)", "assay_type": "in vivo", "conditions": "female NMRI mice, ear biopsy 24 h after intradermal zymosan; p<0.005", "text": "• Test 2: Detection of a general anti-inflammatory principle of activity by inhibition of the zymosan-induced influx of neutrophilic granulocytes in the mouse ear by the EGF-receptor kinase inhibitor 4-[(3-chloro-4-fluoro-phenyl)amino]-6-[(4-dimethylamino-cyclohexyl)amino]-pyrimido[5,4-d]pyrimidine (compound N).\nDetermining the influx of neutrophilic granulocytes by measuring the myeloperoxidase (MPO) activity in the tissue. MPO is specific for neutrophilic granulocytes.\nFemale mice (breed: NMRI) weighing 20-25 g were anaesthetised with pentobarbital 60 mg/kg i.p. […] of zymosan dissolved in physiological saline in a volume of […] were administered intradermally into the right ear. 24 h after the intradermal application of zymosan the animals were killed with an overdose of pentobarbital. An ear biopsy (0=8 mm) was taken from the left (untreated) and right (treated) ear and placed in a test tube prepared with 1 ml of 0.5% HTAB. The samples were homogenised for 15 sec with an Ultraturrax. The homogenised preparations were centrifuged for 5 min in an Eppendorf bench centrifuge at 15700 g at ambient temperature. […] After 10 minutes' incubation at ambient temperature the absorption was measured with a spectral photometer at a wavelength of 450 nm.", "units": {"inhibition of the zymosan-induced increase in the MPO activity in the tissue": "%"}, "values": [
      {"compound": "CN(C)C1CCC(Nc2ncc3ncnc(Nc4ccc(F)c(Cl)c4)c3n2)CC1", "note": "(stereo not drawn) [compound N, 4-[(3-chloro-4-fluoro-phenyl)amino]-6-[(4-dimethylamino-cyclohexyl)amino]-pyrimido[5,4-d]pyrimidine]", "inhibition of the zymosan-induced increase in the MPO activity in the tissue": 60}
    ]},
    {"system": "not given", "assay": "not given", "conditions": "not given", "units": {"melting point": "°C"}, "values": [
      {"compound": "C=CC(=O)Nc1cc2c(Nc3ccc(F)c(Cl)c3)ncnc2cc1OCCCCN1CC(=O)OC(C)(C)C1", "note": "[C, 4-[(3-chloro-4-fluoro-phenyl)amino]-7-[4-(2,2-dimethyl-6-oxo-morpholin-4-yl)-butyloxy]-6-[(vinylcarbonyl)amino]-quinazoline]", "melting point": "110 to 112"},
      {"compound": "CN(C)CC=CC(=O)Nc1cc2c(Nc3ccc(F)c(Cl)c3)ncnc2cc1OCC1CC1", "note": "[Example 3(2), 4-[(3-chloro-4-fluorophenyl)amino]-6-{[4-(N,N-dimethylamino)-1-oxo-2-buten-1-yl]-amino}-7-cyclopropylmethoxy-quinazoline]", "melting point": 137},
      {"compound": "CCN(CC)CC=CC(=O)Nc1cc2c(Nc3ccc(F)c(Cl)c3)ncnc2cc1OCC1CC1", "note": "[Example 3, 4-[(3-chloro-4-fluorophenyl)amino]-6-{[4-(N,N-diethylamino)-1-oxo-2-buten-1-yl]amino}-7-cyclopropylmethoxy-quinazoline]", "melting point": 114},
      {"compound": "CCOC(=O)CN(C)CC=CC(=O)Nc1cc2c(Nc3cccc(C)c3)ncnc2cc1OC", "note": "[Example 4, 4-[(3-methylphenyl)amino]-6-[(4-{N-[(ethoxycarbonyl)methyl]-N-methylamino}-1-oxo-2-buten-1-yl)amino]-7-methoxy-quinazoline]", "melting point": "122 to 124"},
      {"compound": "C[C@H]1CN(CC=CC(=O)Nc2cc3c(Nc4ccc(F)c(Cl)c4)ncnc3cc2OCC2CC2)CC(=O)O1", "note": "[Example 6, 4-[(3-chloro-4-fluoro-phenyl)amino]-6-{[4-((S)-6-methyl-2-oxo-morpholin-4-yl)-1-oxo-2-buten-1-yl]amino}-7-cyclopropylmethoxy-quinazoline]", "melting point": "173 to 175"},
      {"compound": "COc1cc2ncnc(Nc3cccc(Br)c3)c2cc1OCCN1CC(=O)O[C@@H](C)C1", "note": "[Example 7, 4-[(3-bromo-phenyl)amino]-6-[2-((S)-6-methyl-2-oxo-morpholin-4-yl)-ethoxy]-7-methoxy-quinazoline]", "melting point": 190},
      {"compound": "CN(CC=CC(=O)Nc1cc2c(Nc3ccc(F)c(Cl)c3)ncnc2cc1OC1CCCC1)C1CC1", "note": "[Example 8(9), 4-[(3-chloro-4-fluorophenyl)amino]-6-{[4-(N-cyclopropyl-N-methyl-amino)-1-oxo-2-buten-1-yl]amino}-7-cyclopentyloxy-quinazoline]", "melting point": 140},
      {"compound": "CN(C)CC=CC(=O)Nc1cc2c(Nc3ccc(F)c(Cl)c3)ncnc2cc1OC[C@H]1CCCO1", "note": "[Example 8(10), 4-[(3-chloro-4-fluorophenyl)amino]-6-{[4-(N,N-dimethylamino)-1-oxo-2-buten-1-yl]-amino}-7-[(R)-(tetrahydrofuran-2-yl)methoxy]-quinazoline]", "melting point": "110 to 112"}
    ]},
    {"system": "cigarette smoke-induced influx of neutrophilic granulocytes into the lung tissue", "assay": "Test 1: inhibition of smoke-induced accumulation of granulocytes in the lung tissue (MPO activity)", "assay_type": "in vivo, rats (Sprague-Dawley)", "conditions": "Rattus norvegicus; male rats, smoke from 8 cigarettes a day for 5 days; intratracheal dose each day 30 mins before smoke exposure; lung tissue MPO; linear regression; read-out: ID50 (dosage that produced a 50% inhibition of the MPO activity)", "description": "(§1) Male rats (breed: Sprague-Dawley) weighing from 250-300 g were exposed to the smoke from 8 cigarettes a day for 5 days. […] On the last day of the experiment the animals were killed 4 hours after the final smoke exposure and the lung tissue was removed. From each lung a sample of 70-200 mg was taken and placed in a prepared test tube containing 1 ml of 0.5% hexadecyltrimethyl ammonium bromide. The samples were homogenised for 15 sec with an Ultraturrax. The homogenates were centrifuged off in an Eppendorf bench centrifuge at 15700 g for 5 min at ambient temperature. […] After 10 minutes' incubation at ambient temperature, the absorption was measured with a spectral photometer at a wavelength of 450 nm.", "units": {"ED50": "mg/kg"}, "values": [
      {"compound": "C=CC(=O)Nc1cc2c(Nc3ccc(F)c(Cl)c3)ncnc2cc1OCCCCN1CC(=O)O[C@H](C)C1", "note": "[B, 4-[(3-chloro-4-fluoro-phenyl)amino]-7-[4-((R)-6-methyl-2-oxo-morpholin-4-yl)-butyloxy]-6-[(vinylcarbonyl)amino]-quinazoline]", "ED50": 0.03},
      {"compound": "C=CC(=O)Nc1cc2c(Nc3ccc(F)c(Cl)c3)ncnc2cc1OCCCCN1CC(=O)OC(C)(C)C1", "note": "[C, 4-[(3-chloro-4-fluoro-phenyl)amino]-7-[4-(2,2-dimethyl-6-oxo-morpholin-4-yl)-butyloxy]-6-[(vinylcarbonyl)amino]-quinazoline]", "ED50": 0.03},
      {"compound": "C=CC(=O)Nc1cc2c(Nc3ccc(F)c(Cl)c3)ncnc2cc1OCCCCN1CC(=O)O[C@@H](C)C1", "note": "[D, 4-[(3-chloro-4-fluoro-phenyl)amino]-7-[4-((S)-6-methyl-2-oxo-morpholin-4-yl)-butyloxy]-6-[(vinylcarbonyl)amino]-quinazoline]", "ED50": 0.3},
      {"compound": "COCCN(CC=CC(=O)Nc1cc2c(Nc3ccc(F)c(Cl)c3)ncnc2cc1OCC1CC1)CCOC", "note": "[E, 4-[(3-chloro-4-fluoro-phenyl)amino]-6-({4-[bis-(2-methoxyethyl)-amino]-1-oxo-2-buten-1-yl}amino)-7-cyclopropylmethoxy-quinazoline]", "ED50": 0.2},
      {"compound": "C[C@@H]1CN(CC=CC(=O)Nc2cc3c(Nc4ccc(F)c(Cl)c4)ncnc3cc2OCC2CC2)CC(=O)O1", "note": "[F, 4-[(3-chloro-4-fluoro-phenyl)amino]-6-{[4-((R)-6-methyl-2-oxo-morpholin-4-yl)-1-oxo-2-buten-1-yl]amino}-7-cyclopropylmethoxy-quinazoline]", "ED50": 0.3},
      {"compound": "COC[C@@H]1CN(CC=CC(=O)Nc2cc3c(Nc4ccc(F)c(Cl)c4)ncnc3cc2OCC2CC2)CC(=O)O1", "note": "[H, 4-[(3-chloro-4-fluoro-phenyl)amino]-6-{[4-((S)-2-methoxymethyl-6-oxo-morpholin-4-yl)-1-oxo-2-buten-1-yl]amino}-7-cyclopropylmethoxy-quinazoline]", "ED50": 0.3},
      {"compound": "CCN(CC=CC(=O)Nc1cc2c(N[C@H](C)c3ccccc3)ncnc2cc1OCC1CC1)CCOC", "note": "[I, 4-[(R)-(1-phenyl-ethyl)amino]-6-({4-[N-(2-methoxy-ethyl)-N-ethyl-amino]-1-oxo-2-buten-1-yl}amino)-7-cyclopropylmethoxy-quinazoline]", "ED50": 0.2},
      {"compound": "COCCN(CC=CC(=O)Nc1cc2c(N[C@H](C)c3ccccc3)ncnc2cc1OCC1CC1)CCOC", "note": "[K, 4-[(R)-(1-phenyl-ethyl)amino]-6-{[4-(N,N-bis-(2-methoxy-ethyl)-amino)-1-oxo-2-buten-1-yl]amino}-7-cyclopropylmethoxy-quinazoline]", "ED50": 0.3},
      {"compound": "C[C@@H](Nc1ncnc2cc(OCC3CC3)c(NC(=O)C=CCN(C)C3CCOCC3)cc12)c1ccccc1", "note": "[L, 4-[(R)-(1-phenyl-ethyl)amino]-6-({4-[N-(tetrahydropyran-4-yl)-N-methyl-amino]-1-oxo-2-buten-1-yl}amino)-7-cyclopropylmethoxy-quinazoline]", "ED50": 0.1},
      {"compound": "COc1cc2ncnc(Nc3ccc(F)c(Cl)c3)c2cc1OCCN1CC(=O)O[C@@H](C)C1", "note": "[compound A, 4-[(3-chloro-4-fluoro-phenyl)amino]-6-[2-((S)-6-methyl-2-oxo-morpholin-4-yl)-ethoxy]-7-methoxy-quinazoline]", "ED50": 0.1}
    ]},
    {"system": "cigarette smoke-induced influx of neutrophilic granulocytes into the lung tissue", "assay": "Test 1: inhibition of smoke-induced accumulation of granulocytes in the lung tissue (MPO activity)", "assay_type": "in vivo, rats (Sprague-Dawley)", "conditions": "male rats, smoke from 8 cigarettes a day for 5 days; intratracheal dose each day 30 mins before smoke exposure; lung tissue MPO; linear regression", "description": "as §1", "units": {"ID50 (dosage that produced a 50% inhibition of the MPO activity)": "mg/kg"}, "values": [
      {"compound": "4-[(3-chloro-4-fluoro-phenyl)amino]-6-[2-((S)-6-methyl-2-oxo-morpholin-4-yl)-ethoxy]-7-methoxy-quinazoline [G]", "ID50 (dosage that produced a 50% inhibition of the MPO activity)": "<0.03"}
    ]},
    {"system": "cigarette smoke-induced influx of neutrophilic granulocytes into the lung tissue", "assay": "Test 1: inhibition of smoke-induced accumulation of granulocytes in the lung tissue (MPO activity)", "assay_type": "in vivo, rats (Sprague-Dawley)", "conditions": "rats, intratracheal 0.03 or 0.1 mg/kg daily, lung tissue myeloperoxidase", "description": "as §1", "values": [
      {"compound": "COc1cc2ncnc(Nc3ccc(F)c(Cl)c3)c2cc1OCCN1CC(=O)O[C@@H](C)C1", "note": "[compound A, 4-[(3-chloro-4-fluoro-phenyl)amino]-6-[2-((S)-6-methyl-2-oxo-morpholin-4-yl)-ethoxy]-7-methoxy-quinazoline]", "inhibition of the smoke-induced accumulation of granulocytes": "significant (p<0.005) inhibition"}
    ]}
  ]
}
